Results reported in patent publication US20220331322A1, “COMPOUND FOR INHIBITING CELL DEATH” (Christian-Albrechts-Universität zu Kiel, priority 2019, published 2022).
Where a SMILES comes first, the peptide text is derived from it. The star is where a group is joined. Cbz = O=C(OCc1ccccc1)*; CH2F = FC*

Legend:
[1] = tested on: L929 cells; experiment: Stimulation assay: TNF-α + 5Z-7 (± zVAD) induced RIPK1-dependent apoptosis/necroptosis; assay type: cell-based, murine; details: primidone 1 mM, Nec-1s 20 μM; for Block of RIPK1-dependent apoptosis (RDA): L929, 10 ng/ml TNF-α + 1 μM 5Z-7, 24 h, zVAD 25 μM
Procedure: Murine fibroblasts (L929 cells) were stimulated for 24 h at 37° C. in the presence of (a) vehicle, (b) 10 ng/ml tumor necrosis factor alpha (TNF-α), (c) 1 μM 5Z-7-oxozeaenol (5Z-7), (d) a combination of 10 ng/ml TNF-α and 1 μM 5Z-7, (e) a combination of 10 ng/ml TNF-α, 1 μM 5Z-7, and 20 μM necrostatin-1 (Nec-1s), (f) a combination of 10 ng/ml TNF-α, 1 μM 5Z-7, and 1 mM primidone (primidone is referred to in the Figures as compound A), (g) a combination of 10 ng/ml TNF-α, 1 μM 5Z-7, and 25 μM zVAD, (h) a combination of 10 ng/ml TNF-α, 1 μM 5Z-7, and 20 μM Nec-1s, and (i) a combination of 10 ng/ml TNF-α, 1 μM 5Z-7, 25 μM zVAD, and 1 mM primidone. TNF-α is a pro-inflammatory cytokine which triggers cell survival (canonical pathway) or cell death, depending on the cellular context. 5Z-7-oxozeaenol (5Z-7) is an inhibitor of transforming growth factor activated kinase 1 (TAK1). TAK1 is an intermediate in the signaling pathway of the TNF-receptor type 1 (TNFR1), and it is known that TAK1 is essential for the prevention of TNF-induced cell death. Cells in which TAK1 is disrupted or otherwise blocked are hypersensitive to TNF-α-induced cell death due to diminished prosurvival pathways including NF-κB and reduced antioxidant enzymes which results in activation of caspases. The compound zVAD is a pan-caspase inhibitor.

[2] = tested on: L929 cells; experiment: TLR3-mediated cell death induced by poly (I:C) + zVAD; assay type: cell-based, murine; details: L929, 1 μg/ml poly (I:C) + 25 μM zVAD, 24 h; primidone 1 mM, Nec-1s 20 μM
Excerpt: Cell death was induced by activation of the Toll-like receptor 3 (TLR3). TLR3 is mainly expressed on immune cells, where it senses pathogen-associated molecular patterns and initiates innate immune response. The TLR3 agonist poly (I:C) was developed to mimic pathogens infection and boost immune system activation. In experimental models, poly (I:C) is known to induce regulated cell death in cells expressing TLR3. To examine whether primidone also blocks TLR3-mediated cell death, murine L929 cells were stimulated for 24 h at 37° C. with vehicle (a), 1 μg/ml of the TLR3 ligand poly (I:C) alone (b) or in combination with 25 μM zVAD (c). In addition, cells were stimulated with 1 μg/ml poly (I:C), 25 μM zVAD and 20 μM Nec-1s (d) and with 1 μg/ml poly (I:C), 25 μM zVAD and 1 mM primidone (e).

[3] = target: T1, RIPK1 (Homo sapiens, UniProt Q13546); experiment: KINOMEscan profiling kinase assay
T1 sequence (Q13546 1-671): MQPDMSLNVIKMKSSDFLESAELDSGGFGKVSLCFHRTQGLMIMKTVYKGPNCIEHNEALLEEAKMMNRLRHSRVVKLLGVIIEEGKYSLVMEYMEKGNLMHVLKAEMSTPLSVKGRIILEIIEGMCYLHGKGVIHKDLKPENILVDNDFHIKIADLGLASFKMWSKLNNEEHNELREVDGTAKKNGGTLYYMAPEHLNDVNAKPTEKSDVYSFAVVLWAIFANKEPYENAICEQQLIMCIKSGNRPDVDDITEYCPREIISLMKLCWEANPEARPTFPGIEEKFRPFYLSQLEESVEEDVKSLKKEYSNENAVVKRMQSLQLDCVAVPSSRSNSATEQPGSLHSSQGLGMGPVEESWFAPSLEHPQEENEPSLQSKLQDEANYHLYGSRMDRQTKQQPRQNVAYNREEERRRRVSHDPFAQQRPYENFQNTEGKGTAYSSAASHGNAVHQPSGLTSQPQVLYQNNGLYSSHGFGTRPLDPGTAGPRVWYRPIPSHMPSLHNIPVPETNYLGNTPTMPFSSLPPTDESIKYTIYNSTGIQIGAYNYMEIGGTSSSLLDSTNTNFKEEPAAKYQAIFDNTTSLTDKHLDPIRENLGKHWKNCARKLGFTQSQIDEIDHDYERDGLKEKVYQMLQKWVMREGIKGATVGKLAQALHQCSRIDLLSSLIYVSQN
Procedure: To clarify, a KINOMEscan™ profiling kinase assay was performed. […] Dissociation constants (Kd) for test compound-kinase interactions are calculated by measuring the amount of kinase captured on the solid support as a function of the test compound concentration.

[4] = tested on: L929 cells; experiment: Time profile of blocking TZ-induced necroptosis, FACS (7-AAD/Annexin V); assay type: cell-based, murine; details: L929, 10 ng/ml TNF-α + 25 μM zVAD (TZ), 24 h; primidone 1 mM, Nec-1s 25 μM; one representative experiment of three
Procedure: The time profile of primidone for blocking cell death was compared to the one of Nec-1s. For this purpose, murine L929 cells were stimulated at 37° C. for 24 h with 10 ng/ml TNF-α+25 μM zVAD (TZ) in the presence of 1 mM primidone and 25 μM Nec-1s, respectively, for the indicated durations. Nec-1s and primidone were added 30 min before, 60 min and 180 min after the induction of RIPK1-mediated necroptosis, respectively. Cell death was quantified by FACS analysis using 7-amino-actinomycin D and phosphatidylserine accessibility (Annexin V staining) as markers.

[5] = tested on: L929 cells; experiment: TZ-induced RIPK1-dependent necroptosis, metabolites; assay type: cell-based, murine; details: L929, 10 ng/ml TNF-α + 25 μM zVAD, 24 h; 1 mM PEMA or PB
Procedure: Murine fibroblasts (L929 cells) were incubated for 24 h at 37° C. in the presence of (a) vehicle, (b) 1 mM PEMA or PB, respectively, (c) a combination of 10 ng/ml TNF-α+25 μM zVAD (TZ), and (d) a combination of TZ+PEMA or TZ+PB, respectively.

[6] = tested on: Jurkat cells; experiment: Anti-Fas antibody induced RIPK1-independent apoptosis; assay type: cell-based, human; details: 5 ng/ml anti-Fas antibody, 5 h, zVAD 25 μM, primidone 1 mM
Procedure: To this end, human T cells (Jurkat cells) were incubated for 5 h at 37° C. in the presence of (a) vehicle, (b) 5 ng/ml anti-Fas antibody, (c) 5 ng/ml anti-Fas antibody in combination with 25 μM of the pan-caspase inhibitor zVAD, and (d) 5 ng/ml anti-Fas antibody in combination with 1 mM primidone. The addition of the anti-Fas antibody induces apoptosis, a caspase-dependent form of regulated cell death that can be inhibited by the addition of the pan-caspase inhibitor zVAD.

SMILES: CN1C(=O)NC(Cc2c[nH]c3c(Cl)cccc23)C1=O (stereo not shown) [Nec-1s]
- Block of RIPK1-dependent necroptosis ([1]; L929, 10 ng/ml TNF-α + 1 μM 5Z-7 + 25 μM zVAD, 24 h): prevents RIPK-1 dependent cell death
- Block of RIPK1-dependent apoptosis (RDA) [1]: can be blocked
- Protection from RIPK1-mediated cell death induced by poly (I:C) and zVAD [2]: effectively protect cells
- Binding to RIPK1 kinase domain (prevention of kinase binding to immobilized ligand) [3]: prevents the kinase from binding to an immobilized ligand
- Cells still alive, compound added 60 min after induction of cell death [4]: 85.0%
- Cells still alive, compound added 3 hours after induction of cell death [4]: 16.3%

SMILES: CCC1(c2ccccc2)C(=O)NC(=O)NC1=O [PB, 5-Ethyl-5-phenyl-1,3-diazinane-2,4,6-trione]
- Block of TZ-induced RIPK1-dependent cell death (necroptosis) [5]: can be blocked

SMILES: CCC(C(N)=O)(C(N)=O)c1ccccc1 [PEMA, 2-Ethyl-2-phenylmalonamide]
- Block of TZ-induced RIPK1-dependent cell death (necroptosis) [5]: can be blocked

SMILES: CC(NC(=O)C(NC(=O)OCc1ccccc1)C(C)C)C(=O)NC(CC(=O)O)C(=O)CF (stereo not drawn) [zVAD] (Cbz-Val-Ala-Asp-CH2F; configuration not given here)
- Block of RIPK1-dependent apoptosis (RDA) [1]: cell death occurs
- Inhibition of anti-Fas antibody induced cell death (caspase-dependent, RIPK1-independent) [6]: completely blocked
